Patent publication US10214546B2, “Btk inhibitors” (MERCK SHARP & DOHME CORP., priority 2014, dated 2019)
Read-outs that look alike come from different tables or passages of the source.

What was measured:
[1] = target: BTK enzyme (recombinant full-length BTK, hBTK) (Homo sapiens (Human), UniProt Q06187); experiment: BTK enzymatic activity LANCE TR-FRET assay; assay type: biochemical; settings: 50 pM hBTK, 25 μM ATP, 2 μM biotin-A5-peptide; compound range 1 μM to 0.017 nM; read-out: BTK binding IC50
Sequence of BTK enzyme (recombinant full-length BTK, hBTK) (Q06187 whole entry): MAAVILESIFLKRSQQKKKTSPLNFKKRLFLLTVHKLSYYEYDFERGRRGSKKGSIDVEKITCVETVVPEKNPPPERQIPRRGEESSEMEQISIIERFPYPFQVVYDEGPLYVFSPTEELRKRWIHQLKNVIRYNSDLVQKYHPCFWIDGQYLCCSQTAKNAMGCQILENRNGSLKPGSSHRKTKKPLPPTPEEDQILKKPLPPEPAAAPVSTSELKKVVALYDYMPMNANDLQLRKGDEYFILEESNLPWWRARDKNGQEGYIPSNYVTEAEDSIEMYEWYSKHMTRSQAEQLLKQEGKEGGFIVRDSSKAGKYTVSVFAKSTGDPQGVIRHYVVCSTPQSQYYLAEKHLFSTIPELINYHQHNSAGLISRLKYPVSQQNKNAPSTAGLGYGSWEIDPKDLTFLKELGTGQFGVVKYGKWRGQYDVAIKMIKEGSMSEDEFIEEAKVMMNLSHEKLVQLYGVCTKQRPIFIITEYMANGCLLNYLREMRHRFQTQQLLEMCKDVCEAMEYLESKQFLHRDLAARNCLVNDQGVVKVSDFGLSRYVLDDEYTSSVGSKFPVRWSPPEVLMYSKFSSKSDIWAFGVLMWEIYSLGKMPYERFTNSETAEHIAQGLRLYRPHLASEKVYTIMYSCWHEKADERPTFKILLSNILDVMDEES

[2] = test system: adenosine uptake into HeLa cells; experiment: [3H]Adenosine uptake assay in HeLa cells; assay type: cell-based; settings: [3H]adenosine accumulation in HeLa cells, compound range 10 μM to 0.032 nM, read-out: ADU inhibition IC50
In short: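 IC50 came from a 4-parameter fit of counts per second over a ten-point, 1:3 titration (final 10 µM down to […]). Compound was applied 30 min at ambient temperature in HBSS/5% FBS before a 500 nM [3H]adenosine solution was added; uptake ran 60 min, read by Cytostar-T proximity scintillation.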

`C[C@@](O)(c1ccc(-c2nc([C@@H]3CC[C@@H]4N(C3)C(=O)CC43CC3)n3ccnc(N)c23)cc1)c1cccc(C(F)(F)F)c1` [Example 188, (6′R,8a′S)-6′-[8-amino-1-(4-{(1R)-1-hydroxy-1-[3-(trifluoromethyl)phenyl]ethyl}phenyl)imidazo [1,5-a]pyrazin-3-yl]tetrahydro-5′H-spiro[cyclopropane-1,1′-indolizin]-3′(2′H)-one] showed an IC50 [1] of 1.2 nM and an IC50 ([2]; Homo sapiens, HeLa) of 2500 nM.

`C[C@@](O)(c1ccc(-c2nc([C@@H]3CC[C@@H]4N(C3)C(=O)CC43CC3)n3ccnc(N)c23)cc1)c1cccc(C(F)F)c1` [Example 189, (6′R,8a′S)-6′-[8-amino-1-(4-{(1R)-1-[3-(difluoromethyl)phenyl]-1-hydroxyethyl}phenyl)imidazo[1,5-a]pyrazin-3-yl]tetrahydro-5′H-spiro[cyclopropane-1,1′-indolizin]-3′(2′H)-one] gave an IC50 [1] of 0.17 nM and an IC50 ([2]; Homo sapiens, HeLa) of 2080 nM.

In the case of `CC(O)(c1cccc(C(F)(F)F)c1)c1ccc(-c2nc([C@@H]3CC[C@H]4CCC(=O)N4C3)n3c(Cl)cnc(N)c23)c(F)c1` (stereo partly drawn) [Example 190, (6R,8aS)-6-[8-amino-5-chloro-1-(2-fluoro-4-{1-hydroxy-1-[3-(trifluoromethyl)phenyl]ethyl}phenyl)imidazo [1,5-a]pyrazin-3-yl]hexahydroindolizin-3(2H)-one], the IC50 [1] is reported as 310 nM and the IC50 [2] is reported as 316 nM.

With `CC(O)(c1cccc(C(F)(F)F)c1)c1ccc(-c2nc([C@@H]3CC[C@@H]4N(C3)C(=O)CC4(C)C)n3ccnc(N)c23)c(F)c1` (stereo partly drawn) [Example 191, (6R,8aS)-6-[8-amino-1-(2-fluoro-4-{1-hydroxy-1-[3-(trifluoromethyl)phenyl]ethyl}phenyl)imidazo [1,5-a]pyrazin-3-yl]-1,1-dimethylhexahydroindolizin-3(2H)-one] the IC50 [1] was 36.9 nM and the IC50 [2] was 431 nM.

In the case of `CC(O)(c1cccc(C(F)F)c1)c1ccc(-c2nc([C@@H]3CC[C@H]4CCC(=O)N4C3)n3ccnc(N)c23)c(F)c1` (stereo partly drawn) [Example 192, (6R,8aS)-6-(8-amino-1-(4-{1-[3-(difluoromethyl)phenyl]-1-hydroxyethyl}-2-fluorophenyl)imidazo[1,5-a]pyrazin-3-yl]hexahydroindolizin-3(2H)-one], the IC50 [1] is reported as 110 nM and the IC50 [2] is reported as 522 nM.

For `CC(O)(c1cccc(C(F)(F)F)c1)c1ccc(-c2nc([C@@H]3CC[C@H]4CCC(=O)N4C3)n3c(Cl)cnc(N)c23)c(F)c1` (stereo partly drawn) [Example 193, (6R,8aS)-6-[8-amino-5-chloro-1-(2-fluoro-4-{1-hydroxy-1-[3-(trifluoromethyl)phenyl]ethyl}phenyl)imidazo [1,5-a]pyrazin-3-yl]hexahydroindolizin-3(2H)-one], the IC50 [1] was 1.2 nM and the IC50 [2] was 1860 nM.

For `CC(O)(c1cccc(C(F)(F)F)c1)c1ccc(-c2nc([C@@H]3CC[C@@H]4N(C3)C(=O)CC4(C)C)n3ccnc(N)c23)c(F)c1` (stereo partly drawn) [Example 194, (6R,8aS)-6-[8-amino-1-(2-fluoro-4-{1-hydroxy-1-[3-(trifluoromethyl)phenyl]ethyl}phenyl)imidazo [1,5-a]pyrazin-3-yl]-1,1-dimethylhexahydroindolizin-3(2H)-one], the IC50 [1] was 1.1 nM and the IC50 [2] was 1300 nM.

For `CC(O)(c1cccc(C(F)F)c1)c1ccc(-c2nc([C@@H]3CC[C@H]4CCC(=O)N4C3)n3ccnc(N)c23)c(F)c1` (stereo partly shown) [Example 195], the IC50 [1] was 0.33 nM and the IC50 [2] was 3500 nM.

`CC1(C)C[C@@H]2CC[C@@H](c3nc(-c4ccc(C(C)(O)c5cccc(C(F)(F)F)c5)cc4F)c4c(N)nccn34)CN2C1=O` (stereo partly drawn) [Example 196, (6R,8aS)-6-[8-amino-1-(2-fluoro-4-{1-hydroxy-1-[3-(trifluoromethyl)pheyl]ethyl}phenyl)imidazo [1,5-a)pyrazin-3-yl]-2,2-dimethylhexahydroindolizin-3(2H)-one] showed an IC50 [1] of 500 nM and an IC50 [2] of 369 nM.

For `CC1(C)C[C@@H]2CC[C@@H](c3nc(-c4ccc(C(C)(O)c5cccc(C(F)(F)F)c5)cc4F)c4c(N)nccn34)CN2C1=O` (stereo partly drawn) [Example 197, (6R,8aS)-6-[8-amino-1-(2-fluoro-4-{1-hydroxy-1-[3-(trifluoromethyl)phenyl]ethyl}phenyl)imidazo [1,5-a]pyrazin-3-yl]-2,2-dimethylhexahydroindolizin-3(2H)-one], the IC50 [1] was 2.5 nM and the IC50 [2] was 3490 nM.

Work on `CC1(C)C[C@@H]2CC[C@@H](c3nc(-c4ccc([C@@](C)(O)c5cccc(C(F)(F)F)c5)cc4)c4c(N)ncc(F)n34)CN2C1=O` [Example 198, (6R,8aS)-6-[8-amino-5-fluoro-1-(4-{(1R)-1-hydroxy-1-[3-(trifluoromethyl)phenyl]ethyl}phenyl)imidazo [1,5-a]pyrazin-3-yl]-2,2-dimethylhexahydroindolizin-3(2H)-one] yielded an IC50 [1] of 7.1 nM and an IC50 ([2]; Homo sapiens, HeLa) of 6850 nM.

`C[C@@](O)(c1ccc(-c2nc([C@@H]3CC[C@H]4CCC(=O)N4C3)n3c(F)cnc(N)c23)cc1)c1cccc(C(F)F)c1` [Example 199, (6R,8aS)-6-(8-amino-1-(4-{(1R)-1-[3-(difluoromethyl)phenyl]-1-hydroxyethyl}phenyl)-5-fluoroimidazo[1,5-a]pyrazin-3-yl]hexahydroindolizin-3(2H)-one] showed an IC50 [1] of 0.66 nM and an IC50 ([2]; Homo sapiens, HeLa) of 4500 nM.

With `CC(O)(c1cccc(C(F)F)c1)c1ccc(-c2nc([C@@H]3CC[C@@H]4N(C3)C(=O)CC4(C)C)n3ccnc(N)c23)c(F)c1` (stereo partly drawn) [Example 200, (6R,8aS)-6-[8-amino-1-(4-{1-[3-(difluoromethyl)phenyl]-1-hydroxyethyl}-2-fluorophenyl)imidazo[1,5-a]pyrazin-3-yl]-1,1-dimethylhexahydroindolizin-3(2H)-one] the IC50 [1] was 53.8 nM and the IC50 [2] was 230 nM.

`CC1(C)C[C@@H]2CC[C@@H](c3nc(-c4ccc(C(C)(O)c5cccc(C(F)F)c5)cc4F)c4c(N)nccn34)CN2C1=O` (stereo partly drawn) [Example 201, (6R,8aS)-6-[8-amino-1-(4-{1-[3-(difluoromethyl)phenyl]-1-hydroxyethyl}-2-fluorophenyl)imidazo[1,5-a]pyrazin-3-yl]-2,2-dimethylhexahydroindolizin-3(2H)-one] was tested, and the IC50 [1] was 42.2 nM and the IC50 [2] was 418 nM.

With `CC(O)(c1cccc(C(F)F)c1)c1ccc(-c2nc([C@@H]3CC[C@@H]4N(C3)C(=O)CC4(C)C)n3ccnc(N)c23)c(F)c1` (stereo partly drawn) [Example 202, (6R,8aS)-6-(8-amino-1-(4-{1-[3-(difluoromethyl)phenyl]-1-hydroxyethyl}-2-fluorophenyl)imidazo[1,5-a]pyrazin-3-yl]-1,1-dimethylhexahydroindolizin-3(2H)-one] the IC50 [1] was 0.16 nM and the IC50 [2] was 1920 nM.

`CC1(C)C[C@@H]2CC[C@@H](c3nc(-c4ccc(C(C)(O)c5cccc(C(F)F)c5)cc4F)c4c(N)nccn34)CN2C1=O` (stereo partly drawn) [Example 203, (6R,8aS)-6-[8-amino-1-(4-{1-[3-(difluoromethyl)phenyl]-1-hydroxyethyl}-2-fluorophenyl)imidazo[1,5-a]pyrazin-3-yl]-2,2-dimethylhexahydroindolizin-3(2H)-one] gave an IC50 [1] of 0.43 nM and an IC50 [2] of 2260 nM.

`CCOc1cc([C@@](C)(O)c2cccc(C(F)(F)F)c2)ccc1-c1nc([C@@H]2CC[C@H]3CCC(=O)N3C2)n2c(F)cnc(N)c12` [Example 204, (6R,8aS)-6-[8-amino-1-(2-ethoxy-4-{(1S)-1-hydroxy-1-[3-(trifluoromethyl)phenyl]ethyl}phenyl)-5-fluoroimidazo[1,5-a]pyrazin-3-yl]hexahydroindolizin-3(2H)-one] showed an IC50 [1] of 2.2 nM and an IC50 ([2]; Homo sapiens, HeLa) of 5870 nM.
